# Data as given in PMC7921015, “Spatiotemporal GLP-1 and GIP receptor signaling and trafficking/recycling dynamics induced by selected receptor mono- and dual-agonists” (Molecular Metabolism, 2021).
# Experiments:
# human GLP-1R [1] = target: T1, human GLP-1R (Homo sapiens, UniProt P43220); assay: Gαq (mini-G) recruitment BRET assay, GLP-1R; format: cell-based; conditions: HEK293T, GLP-1R-GFP + NLuc-mini-G, +iAUC 60 min
# T1 construct: host or cells: HEK293T
# human GIPR [2] = target: T2, human GIPR (Homo sapiens, UniProt P48546); assay: β-arrestin 2 recruitment BRET assay, GIPR; format: cell-based; conditions: HEK293T, GIPR-GFP + β-arrestin2-RLUC8, BRET, +iAUC 30 min
# T2 sequence (P48546 22-466): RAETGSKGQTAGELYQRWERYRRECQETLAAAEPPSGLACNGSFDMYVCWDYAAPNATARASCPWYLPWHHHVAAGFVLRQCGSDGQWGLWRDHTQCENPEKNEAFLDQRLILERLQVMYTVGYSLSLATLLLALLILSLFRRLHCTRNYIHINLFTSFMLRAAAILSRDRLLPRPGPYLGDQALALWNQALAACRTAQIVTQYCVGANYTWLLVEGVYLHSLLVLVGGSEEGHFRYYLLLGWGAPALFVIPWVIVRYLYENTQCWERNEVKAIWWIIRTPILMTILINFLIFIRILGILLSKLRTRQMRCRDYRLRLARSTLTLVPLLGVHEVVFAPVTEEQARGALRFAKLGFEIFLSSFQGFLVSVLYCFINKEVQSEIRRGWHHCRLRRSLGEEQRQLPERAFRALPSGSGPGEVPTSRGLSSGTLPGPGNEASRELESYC
# Protocol: (§1) The cells were seeded (700,000 cells/well) in 6-well plates and incubated to ∼70% confluency in complete media supplemented with 10% FBS and 1% Pen-Strep. […] Baseline measurements were taken after 5 min of incubation with coelenterazine-h or NanoGlo. The cells were then treated with a vehicle or the respective agonists. […] The temporal data of the vehicle-corrected agonist measurement was then normalized to the baseline reading of the same well. The first BRET reading following treatment with agonist/vehicle was the subsequent measurement after the zero time point. Positive or negative incremental areas under the curves (+iAUC/-iAUC) were calculated where noted. Each experiment was independently performed at least three times, with at least two technical replicates for each group.
# (§2) Co-localization of β-arrestin1/2-RLUC8 with GLP-1R-GFP or GIPR-GFP was assessed.
# (§3) Data are represented as means ± S.E.M. Each experiment was independently conducted at least three times, each with at least two technical replicates. […] Dose responses were fitted using non-linear regression. pEC50 and EC50 values were calculated using GraphPad Prism 8.0 (GraphPad, San Diego, CA, USA). Statistical analyses were calculated in GraphPad 8.0 using one-way analysis of variance (ANOVA) and corrected with Tukey's or Bonferroni's multiple comparison test. Differences are considered significant with an adjusted p value < 0.05.
# human GLP-1R [3] = target: T1, human GLP-1R; assay: β-arrestin 1 recruitment BRET assay, GLP-1R; format: cell-based; conditions: HEK293T, GLP-1R-GFP + β-arrestin1-RLUC8, BRET, +iAUC 30 min
# Protocol: as §1, §2
# as §3, with “Differences are considered significant with an adjusted p value < 0.05.” left out
# human GLP-1R [4] = target: T1, human GLP-1R; assay: Gαs (mini-G) recruitment BRET assay, GLP-1R; format: cell-based; conditions: HEK293T, GLP-1R-GFP + NLuc-mini-G, +iAUC 60 min
# human GLP-1R [5] = target: T1, human GLP-1R; assay: cAMP assay (CAMYEL BRET sensor), GLP-1R; format: cell-based; conditions: CAMYEL sensor, no IBMX, mean ± SEM, at least 3 experiments, SEM
# Protocol: as §1
# (§4) CAMYEL, a cAMP sensor using YFP-Epac-RLuc was utilized to quantify cAMP accumulation with the temporal resolution. Then, 500 ng of CAMYEL DNA was co-transfected with 500 ng of DNA of untagged GLP-1R or GIPR per well in a 6-well plate. The experiments were performed in the absence of 3-isobutyl-1-methylxanthine (IBMX).
# as §3
# human GIPR [6] = target: T2, human GIPR; assay: Gαq (mini-G) recruitment BRET assay, GIPR; format: cell-based; conditions: HEK293T, GIPR-GFP + NLuc-mini-G, +iAUC 60 min
# human GIPR [7] = target: T2, human GIPR; assay: cAMP assay (CAMYEL BRET sensor), GIPR; format: cell-based; conditions: HEK293T, GIPR, CAMYEL sensor, no IBMX, +iAUC 25 min
# Protocol: as §1, §4, §3
# human GIPR [8] = target: T2, human GIPR; assay: GPCR internalization assay (loss of BRET with Venus-KRAS), GIPR; format: cell-based; conditions: HEK293T, hGIPR-Rluc8 + Venus-KRAS, iAUC 20 min
# human GLP-1R [9] = target: T1, human GLP-1R; assay: GPCR internalization assay (loss of BRET with Venus-KRAS), GLP-1R; format: cell-based; conditions: HEK293T, hGLP-1R-Rluc8 + Venus-KRAS, iAUC 60 min
# human GIPR [10] = target: T2, human GIPR; assay: Gαs (mini-G) recruitment BRET assay, GIPR; format: cell-based; conditions: HEK293T, GIPR-GFP + NLuc-mini-G, +iAUC 60 min
# human GIPR [11] = target: T2, human GIPR; assay: β-arrestin 1 recruitment BRET assay, GIPR; format: cell-based; conditions: HEK293T, GIPR-GFP + β-arrestin1-RLUC8, BRET, +iAUC 30 min
# Protocol: as §1, §2, §3
# human GLP-1R [12] = target: T1, human GLP-1R; assay: β-arrestin 2 recruitment BRET assay, GLP-1R; format: cell-based; conditions: HEK293T, GLP-1R-GFP + β-arrestin2-RLUC8, BRET, +iAUC 30 min
# Protocol: as §1, §2
# as §3, with “Differences are considered significant with an adjusted p value < 0.05.” left out
# [13] = target: Human GIPR-turbo GFP (human) (UniProt P48546)
# [14] = target: Human GIPR-turbo GFP (human) (UniProt P48546); remark: listed apart in the source
# Human GLP-1R-GFP (human) [15] = target: Human GLP-1R-GFP (human) (UniProt P43220)
# Human GLP-1R-GFP (human), sequence (P43220 24-463): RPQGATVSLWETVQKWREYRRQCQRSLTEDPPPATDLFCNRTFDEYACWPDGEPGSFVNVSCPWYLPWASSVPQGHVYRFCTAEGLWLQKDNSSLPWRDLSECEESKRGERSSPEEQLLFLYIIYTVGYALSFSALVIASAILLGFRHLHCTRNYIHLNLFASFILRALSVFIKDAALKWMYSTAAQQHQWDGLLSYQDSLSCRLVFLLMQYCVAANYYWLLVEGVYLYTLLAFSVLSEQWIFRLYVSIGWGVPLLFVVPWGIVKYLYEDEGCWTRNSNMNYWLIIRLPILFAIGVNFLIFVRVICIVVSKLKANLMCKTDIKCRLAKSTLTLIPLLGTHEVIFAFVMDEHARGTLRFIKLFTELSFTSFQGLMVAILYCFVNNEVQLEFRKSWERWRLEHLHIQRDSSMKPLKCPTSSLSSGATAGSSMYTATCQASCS
# Human GLP-1R-GFP (human) [16] = target: Human GLP-1R-GFP (human) (UniProt P43220); remark: listed apart in the source
# [17] = HEK-293T, mean ± SEM, at least 3 experiments, SEM
# [18] = read-out: β-arr2 Recruitment EC50
# [19] = read-out: β-arr1 Recruitment EC50
# [20] = read-out: Receptor Internalization EC50
# T1 sequence (P43220 24-463): as above
molecule,measurement,setting,value
CCCCCCCCCCCCCCCC(=O)NCCCC[C@H](NC(=O)[C@H](CO)NC(=O)[C@@H]1CCCN1C(=O)[C@@H]1CCCN1C(=O)[C@@H]1CCCN1C(=O)[C@H](C)NC(=O)CNC(=O)[C@H](CO)NC(=O)[C@H](CO)NC(=O)[C@@H]1CCCN1C(=O)CNC(=O)CNC(=O)[C@H](C)NC(=O)[C@H](CC(C)C)NC(=O)[C@H](CC(C)C)NC(=O)[C@H](Cc1c[nH]c2ccccc12)NC(=O)[C@H](CC(N)=O)NC(=O)[C@@H](NC(=O)[C@H](Cc1ccccc1)NC(=O)[C@H](CCC(=O)O)NC(=O)C(C)(C)NC(=O)[C@H](C)NC(=O)[C@H](C)NC(=O)[C@H](CCC(N)=O)NC(=O)[C@H](CCCCN)NC(=O)[C@H](CC(=O)O)NC(=O)[C@H](CC(C)C)NC(=O)[C@H](Cc1ccc(O)cc1)NC(=O)[C@@H](NC(=O)[C@H](CO)NC(=O)[C@@H](NC(=O)[C@H](CC(=O)O)NC(=O)[C@H](CO)NC(=O)[C@@H](NC(=O)[C@H](Cc1ccccc1)NC(=O)[C@@H](NC(=O)CNC(=O)[C@H](CCC(=O)O)NC(=O)C(C)(C)NC(=O)[C@@H](N)Cc1c[nH]cn1)[C@@H](C)O)[C@@H](C)O)C(C)C)[C@@H](C)CC)C(C)C)C(N)=O [fatty acyl-GLP-1],EC50,human GLP-1R [1],305 nM
same,Emax,human GLP-1R [1]; [17],101 ± 5%
same,EC50,"human GIPR [2]; mean ± SEM, read-out: β-arr2 Recruitment pEC50 (converted)",> 1000 nM
same,EC50,human GIPR [2]; [18],> 1000 nM
same,EC50,human GLP-1R [3]; [19],358 nM
same,Emax,"human GLP-1R [3]; HEK-293T, mean ± SEM, at least 3 experiments, SEM, read-out: β-arr1 Recruitment Emax (% GLP-1)",88 ± 4%
same,EC50,human GLP-1R [4],423 nM
same,Emax,human GLP-1R [4]; [17],98 ± 5%
same,EC50,"human GLP-1R [5]; HEK293T, GLP-1R, +iAUC 25 min, read-out: cAMP pEC50 (converted)",0.363 nM
same,Emax,"human GLP-1R [5]; HEK-293T, HEK293T transiently expressing untagged GLP-1R, +iAUC of 25 min response, 3-parameter fit",99 ± 3%
same,EC50,"human GIPR [6]; mean ± SEM, read-out: Gαq Recruitment pEC50 (converted)",> 1000 nM
same,EC50,human GIPR [6]; read-out: Gαq Recruitment EC50,> 1000 nM
same,EC50,"human GIPR [7]; mean ± SEM, read-out: cAMP pEC50 (converted)",> 1000 nM
same,EC50,human GIPR [7]; read-out: cAMP EC50,> 1000 nM
same,EC50,"human GIPR [8]; mean ± SEM, read-out: Receptor Internalization pEC50 (converted)",> 1000 nM
same,EC50,human GIPR [8]; [20],> 1000 nM
same,EC50,human GLP-1R [9]; [20],490 nM
same,Emax,"human GLP-1R [9]; HEK-293T, mean ± SEM, at least 3 experiments, SEM, read-out: Receptor Internalization Emax (% GLP-1)",108 ± 4%
same,EC50,"human GIPR [10]; mean ± SEM, read-out: Gαs Recruitment pEC50 (converted)",> 1000 nM
same,EC50,human GIPR [10]; read-out: Gαs Recruitment EC50,> 1000 nM
same,EC50,human GIPR [11]; [19],> 1000 nM
same,EC50,human GIPR [11]; read-out: β-arr1 Recruitment pEC50 (converted),> 1000 nM
same,EC50,human GLP-1R [12]; [18],188 nM
same,Emax,"human GLP-1R [12]; HEK-293T, mean ± SEM, at least 3 experiments, SEM, read-out: β-arr2 Recruitment Emax (% GLP-1)",86 ± 3%
MAR709 (peptide),"GIPR co-localization with Rab5^+ endosomes (BRET of hGIPR-Rluc8 with Venus-Rab5, HEK293T), % of the response to GIP (1–42), fatty acyl-GIP and tirzepatide",[13],66%
same,"GIPR internalization Emax, % of GIP (1–42) (loss of BRET between hGIPR-Rluc8 and Venus-KRAS, HEK293T)",[14],4%
same,"GLP-1R co-localization with Rab5 early endosomes (BRET of hGLP-1R-Rluc8 with Venus-Rab5, HEK293T), 1 μM, % of GLP-1 (7–36 amide)",Human GLP-1R-GFP (human) [15],68%
same,"GLP-1R co-localization with Rab7 late endosomes (BRET of hGLP-1R-Rluc8 with Venus-Rab7, HEK293T), % of GLP-1 (7–36 amide)",Human GLP-1R-GFP (human) [15],62%
same,"GLP-1R internalization Emax, % of GLP-1 (7–36 amide) (loss of BRET between hGLP-1R-Rluc8 and Venus-KRAS, HEK293T)",Human GLP-1R-GFP (human) [16],51%
